Molecules are shown by their SMILES. Converted amounts (≈) assume the structure as drawn. Bridge positions count the residues as written; N and C are the ends. Square brackets hold non-standard residues; d marks the D form. Peptide text beside a SMILES is read from it. * marks the point of attachment. ξ: configuration not given here. hPhe(3-Cl-4-CF3) = N[C@@H](CCc1ccc(C(F)(F)F)c(Cl)c1)C(=O)O; Phe(3-Cl) = N[C@@H](Cc1cccc(Cl)c1)C(=O)O; NMeCha = CN[C@@H](CC1CCCCC1)C(=O)O; NMeChg = CN[C@H](C(=O)O)C1CCCCC1; NMeF = CN[C@@H](Cc1ccccc1)C(=O)O; NMeD = CN[C@@H](CC(=O)O)C(=O)O; dNMeD = CN[C@H](CC(=O)O)C(=O)O; dNMeL = CN[C@H](CC(C)C)C(=O)O; ξIle = CC[C@H](C)C(N)C(=O)O; NMeS = CN[C@@H](CO)C(=O)O; Pip = O=C(O)[C@@H]1CCCCN1; Nle = CCCC[C@H](N)C(=O)O; Piperidide = C1CCN(*)CC1; Pyrrolidide = C1CCN(*)C1; dNMeA = CN[C@H](C)C(=O)O; Ac5c = NC1(C(=O)O)CCCC1; Sar = CNCC(=O)O; Propyl = CCC*

As usually defined, the solubility is the dissolved amount per volume that the medium holds. A word on the Papp A→B: it is the apparent permeability from the apical to the basolateral side of a cell layer. A low value points to slow passage.

One series deals with Caco-2 cells. The experiment in a line: Evaluation of Caco-2 membrane permeability. To be noted: HBSS pH 7.4 4% BSA basal, 180 minutes; for Without 5 mM lauroyl-L-carnitine Permeability coefficient (Caco-2 Papp): 10 µM compound in FaSSIF/HBSS pH 6.5 apical, no lauroyl-L-carnitine; for With 5 mM lauroyl-L-carnitine Permeability coefficient (Caco-2 Papp): 10 µM compound, 5 mM lauroyl-L-carnitine in FaSSIF/HBSS pH 6.5 apical. It is filed as in vitro ADME. The procedure:
(§1) In the above measurements, a Pgp inhibitor, such as Zosquidar, can be added to the FaSSIF/HBSS buffer and the HBSS buffer, respectively.
(§2) After step (step 1) and before step (step 2) of the above, pre-incubation can be performed by allowing each well to stand at 5% CO2, 37° C., 80 rpm for 20 to 24 hours.
(§3) After pre-incubation, the solution at the Basal side can be removed and washed, and a new solution of the same composition can be added. A Pgp inhibitor can also be added to the new solution. When the pre-incubation is performed, it is preferable that a DMEM solution (pH 7.4) containing 4% BSA is used instead of the HBSS buffer (pH 7.4).
(§4) In addition, as the concentration of the substance to be evaluated on the donor side used in the calculation of the permeability coefficient in step (step 3) above, the concentration when initially added can be used, or the concentration measured by collecting the solution at the Apical side before the start of pre-incubation or the start of shaking in the above step (step 2) can be used. In particular, when the preincubation is performed, it is preferable to use the concentration of the solution at the Apical side collected before pre-incubation.
On the technique in general: Caco-2 monolayers are a common model of the intestinal barrier.

A short description of series [1]: Evaluation of solubility in 50 mM phosphate buffer (PPB, pH 6.5). It is filed as physicochemical. The procedure:
To an excessive amount of a lyophilized powder of the compound, 50 mM phosphate buffer (PPB, pH 6.5) is added, and after shaking (37° C., 1 atm, 1800 rpm, for 22 to 24 hours), the mixture is filtered with a filter, and the compound concentration of the filtrate is measured by LC/MS/MS. Solubility (g/mL) is calculated from the measured compound concentration.
Solubility (μg/mL) was calculated from the measured compound concentration.

Series [2] in a line: Evaluation of Caco-2 membrane permeability. Particulars: human. It is filed as in vitro ADME. The procedure:
as §1, §2, §3, §4

Where [3] appears, read: 50 mM phosphate buffer pH 6.5, 37° C., 1 atm, 22 to 24 hours, read-out: PPB solubility.
The mark [4] stands for this setting: Caco-2, With 5 mM lauroyl-L-carnitine Permeability coefficient (Caco-2 Papp).
Setting [5] is: Caco-2, Without 5 mM lauroyl-L-carnitine Permeability coefficient (Caco-2 Papp).

Take `CC[C@H](C)[C@@H]1NC(=O)[C@H](CC(C)C)N(C)C(=O)CC(C(=O)N2CCOCC2)N(C)C(=O)[C@H](C2CCCC2)N(C)C(=O)C2(CCCC2)NC(=O)[C@@H]2CCCN2C(=O)[C@H](CCc2ccc(C(F)(F)F)c(Cl)c2)NC(=O)CN(C)C(=O)[C@H](CC2CCCCC2)N(C)C(=O)[C@@H]2CCN2C(=O)[C@H](C)N(C)C1=O` (single isomer, unassigned) [Compound 2]: in the series on Caco-2 cells, the “Without 5 mM lauroyl-L-carnitine Permeability coefficient (Caco-2 Papp)” value turned out to be 0.0491 ×10⁻⁶ cm/s and the “With 5 mM lauroyl-L-carnitine Permeability coefficient (Caco-2 Papp)” value is 0.265 ×10⁻⁶ cm/s. For the same compound, in series [1] (setting [3]), the solubility is 1.18 µg/mL (≈ 0.81 µM).

Consider `CC[C@H](C)[C@@H]1NC(=O)[C@H](CC(C)C)N(C)C(=O)CC(C(=O)N2CCOCC2)N(C)C(=O)[C@H](C2CCCC2)N(C)C(=O)C2(CCCC2)NC(=O)[C@@H]2CCCN2C(=O)[C@H](CCc2ccc(C(F)(F)F)c(Cl)c2)NC(=O)CN(C)C(=O)[C@H](Cc2ccc(C)cc2)N(CC)C(=O)[C@@H]2CCN2C(=O)[C@H](C)N(C)C1=O` (single isomer, unassigned) [Compound 3], for which the Papp A→B at 180 min in series [2] (setting [4]) was 0.366 ×10⁻⁶ cm/s; in series [2] (setting [5]), 0.215 ×10⁻⁶ cm/s. The solubility in series [1] (pH 6.5) was 1.81 µg/mL (≈ 1.22 µM).

For the compound `CC[C@H](C)[C@@H]1NC(=O)[C@H](CC(C)C)N(C)C(=O)CC(C(=O)N2CCCCC2)N(C)C(=O)[C@H](C2CCCC2)N(C)C(=O)C2(CCCC2)NC(=O)[C@@H]2CCCN2C(=O)[C@H](CCc2ccc(C(F)(F)F)c(Cl)c2)NC(=O)CN(C)C(=O)[C@H](CC2CCCCC2)N(C)C(=O)[C@@H]2CCN2C(=O)[C@H](C)N(C)C1=O` (single isomer, unassigned) [Compound 8], in the series with Caco-2 cells, the “Without 5 mM lauroyl-L-carnitine Permeability coefficient (Caco-2 Papp)” value was 0.042 ×10⁻⁶ cm/s and the “With 5 mM lauroyl-L-carnitine Permeability coefficient (Caco-2 Papp)” value was 0.154 ×10⁻⁶ cm/s. In series [1] (setting [3]), the solubility is 1.13 µg/mL (≈ 0.777 µM).

Consider `CC[C@H](C)[C@@H]1NC(=O)C(CC(C)C)N(C)C(=O)CC(C(=O)N(C)C)N(C)C(=O)[C@H](C2CCCC2)N(C)C(=O)C(C)NC(=O)C(C)N(C)C(=O)[C@H](CCc2ccc(C(F)(F)F)c(Cl)c2)NC(=O)CN(C)C(=O)[C@H](CC2CCCCC2)N(C)C(=O)[C@@H]2CCN2C(=O)[C@H](C)N(C)C1=O` (single isomer, unassigned) [Compound 9], for which, in the series on Caco-2 cells, the “Without 5 mM lauroyl-L-carnitine Permeability coefficient (Caco-2 Papp)” value is 0.00949 ×10⁻⁶ cm/s and the “With 5 mM lauroyl-L-carnitine Permeability coefficient (Caco-2 Papp)” value is 0.0214 ×10⁻⁶ cm/s. Besides, the solubility in series [1] (setting [3]) came out at 9.18 µg/mL (≈ 6.74 µM).

In the case of `CC[C@H](C)[C@@H]1NC(=O)[C@H](CC(C)C)N(C)C(=O)CC(C(=O)N2CCOCC2)N(C)C(=O)[C@H](C2CCCC2)N(C)C(=O)C2(CCCC2)NC(=O)[C@@H]2CCCN2C(=O)[C@H](CCc2ccc(C(F)(F)F)c(Cl)c2)NC(=O)CN(C)C(=O)[C@H](C2CCCC2)N(C)C(=O)[C@@H]2CCN2C(=O)[C@H](C)NC1=O` (single isomer, unassigned) [Compound 10], the Papp A→B at 180 min in series [2] (Caco-2, 5 mM lauroyl-L-carnitine in FaSSIF/HBSS pH 6.5 apical, HBSS pH 7.4 4% BSA basal, 180 minutes) amounted to 0.014 ×10⁻⁶ cm/s. Also, the “Without 5 mM lauroyl-L-carnitine Permeability coefficient (Caco-2 Papp)” value in the series with Caco-2 cells is less than 0.00976 ×10⁻⁶ cm/s. In addition, the solubility in series [1] (setting [3]) came out at 101 µg/mL (≈ 71.6 µM).

`CCCCN1CC(=O)N(C)[C@@H](CC(C)C)C(=O)N[C@@H](Cc2ccc(C(=O)NS(C)(=O)=O)c(OC)c2)C(=O)N(C)[C@@H](CC(C)C)C(=O)N(C)[C@@H](CC(C)C)C(=O)NC(C(=O)N2CCCCC2)CC(=O)NC(CC(C)C)C(=O)N(C)[C@@H](Cc2ccccc2)C(=O)NC(C(C)C)C(=O)N(C)[C@@H](CC(C)C)C(=O)N[C@@H]([C@H](C)O)C1=O` (single isomer, unassigned) [Compound 11]: the Papp A→B at 180 min was found to be 0.0302 ×10⁻⁶ cm/s in series [2] (setting [4]) and 0.00921 ×10⁻⁶ cm/s in series [2] (setting [5]). For the same compound, in series [1] (pH 6.5), the concentration in solution (solubility) came to 16.2 µg/mL (≈ 10.3 µM).

`CC[C@@H](C)[C@H]1NC(=O)[C@@H](Cc2ccccc2)N(C)C(=O)CN(C)C(=O)C[C@@H](C(=O)N2CCCCC2)NC(=O)[C@@H](CC(C)C)N(C)C(=O)[C@@H](COC(C)(C)C)NC(=O)[C@@H](CC(C)C)N(C)C(=O)[C@@H](CCc2ccccc2)N(C)C(=O)CN(C)C(=O)[C@@H]([C@H](C)O)NC(=O)[C@@H](CC(C)C)N(C)C1=O` (stereo in doubt) [Compound 7]: in the series on Caco-2 cells, the “Without 5 mM lauroyl-L-carnitine Permeability coefficient (Caco-2 Papp)” value was less than 0.0944 ×10⁻⁶ cm/s and the “With 5 mM lauroyl-L-carnitine Permeability coefficient (Caco-2 Papp)” value is 0.526 ×10⁻⁶ cm/s. Moreover, the solubility in series [1] (setting [3]) was 5.76 µg/mL (≈ 4.11 µM).

Turning to `CC[C@H](C)C1NC(=O)[C@@H](CC(C)C)N(C)C(=O)C[C@H](C(=O)N2CCCCC2)N(C)C(=O)[C@H](C2CCCCC2)N(C)C(=O)C2(CCCC2)NC(=O)[C@@H]2CCCN2C(=O)[C@H](CCc2ccc(C(F)(F)F)c(Cl)c2)NC(=O)CN(C)C(=O)[C@H](CC2CCCCC2)N(C)C(=O)CN(C)C(=O)CN(C)C1=O` (some centres unmarked) [Compound 1] ([dNMeL][ξIle][Sar][Sar][NMeCha][Sar][hPhe(3-Cl-4-CF3)]P[Ac5c][NMeChg][dNMeD]-Piperidide; lactam N-11), in the series on Caco-2 cells, the “Without 5 mM lauroyl-L-carnitine Permeability coefficient (Caco-2 Papp)” value was found to be 0.0142 ×10⁻⁶ cm/s and the “With 5 mM lauroyl-L-carnitine Permeability coefficient (Caco-2 Papp)” value was determined as 0.253 ×10⁻⁶ cm/s. For the same compound, the solubility in series [1] (setting [3]) was determined as 1.12 µg/mL (≈ 0.777 µM).

As to `CCCC[C@@H]1NC(=O)[C@@H]2CCCN2C(=O)[C@H](CCCC)NC(=O)[C@@H](C)N(C)C(=O)C[C@@H](C(=O)N2CCCC2)N(C)C(=O)[C@@H]2CCCN2C(=O)[C@H]([C@@H](C)CC)NC(=O)[C@@H]2CCCCN2C(=O)[C@H](Cc2cccc(Cl)c2)NC(=O)[C@H](COCCC)N(C)C(=O)[C@H](Cc2ccccc2)N(C)C1=O` [Compound 5] ([dNMeA][Nle]P[Nle][NMeF][NMeS](Propyl)[Phe(3-Cl)][Pip]IP[NMeD]-Pyrrolidide; lactam N-11), in the series on Caco-2 cells, the “Without 5 mM lauroyl-L-carnitine Permeability coefficient (Caco-2 Papp)” value stood at 0.00372 ×10⁻⁶ cm/s and the “With 5 mM lauroyl-L-carnitine Permeability coefficient (Caco-2 Papp)” value amounted to 0.0264 ×10⁻⁶ cm/s.

The record behind these values is US20250186542A1, “COMPOSITION CONTAINING PEPTIDE COMPOUND FOR USE WITH SURFACTANT” (CHUGAI SEIYAKU KABUSHIKI KAISHA, priority 2022, published 2025).
